“Also recorded” adds a separate entry of the source. Square brackets hold non-standard residues; d marks the D form. Peptide text beside a SMILES is read from it. Nle = CCCC[C@H](N)C(=O)O
Columns and labels:
[1] = Solubility and stability in different buffer systems, concentrations, incubation and freeze-thaw; format: physicochemical; conditions: Histidine and NaPi, pH 6.8 to 7.5; 1-10 mg/mL; up to 3 days at 37° C.; up to three freeze-thaw cycles
[2] = PK after single SC injection in rats (LC-MS/MS); conditions: rat, in vivo, 2 mg/kg
Protocol: To support the pharmacodynamic effects of V4 and Cys-FMS-V4 as detailed in Example 9, a pharmacokinetic analysis was also conducted. In this study (Study reference 15204), all animals were injected SC on Day 1 with 2 mg/kg peptide content of V4, Cys-FMS-V4 and Apraglutide. Blood samples were collected at 2, 8, 12, 24, 36, 48, 72, 96, 120 hours, and Days 7, 8, 9, 10, 11, 12, 13 and 14 post-dose administration and subsequently taken to LC-MS/MS analysis to determine plasma levels of each compound. For Cys-FMS-V4, a 2-analyte method was applied to determine the plasma concentrations of both the full conjugate and the V4 that was hydrolyzed from it (V4 hydrolyzed). Plasma concentrations (μM), as measured by using the LC-MS/MS method, of V4 peptide, Cys-FMS-V4, hydrolyzed V4, and Apraglutide are presented in FIG. 17.

[3] = 2-compartmental pharmacokinetic modelling (MONOLIX 2018R2); format: in vivo, rat; conditions: rat, in vivo
Protocol: An in-depth PK modeling was performed to address the unexpected differences in half life, distribution, and pharmacological effect between V4, Cys-FMS-V4, and Apraglutide in the rat model. The analysis was performed with MONOLIX 2018R2 suite using a 2-compartmental pharmacokinetic model. The data used in this analysis was comprised from 3 independent experiments (data is presented as their average). The concentration versus time data of V4 that was formed from the Cys-FMS-V4 conjugate (the hydrolyzed peptide) was described appropriately using the values of the pharmacokinetic parameters of V4 peptide. Thus, the disposition of the hydrolyzed V4 was identical to that of the V4 peptide following the IV and SC administration.
The pharmacokinetics of Apraglutide in our studies was determined after SC administration. […] Based on this assumption, the values of volumes of distribution and clearance (Vpept, Vss, Vbeta, and CL) were calculated for Apraglutide (Table 13). The values of the other parameters of Apraglutide in Table 14 (the rate constants and the half-lives) are not dependent on this assumption.

[4] = PK after single IV injection in rats; format: in vivo; conditions: rat, in vivo, iv, 2 mg/kg
Description: Blood samples were collected at 0.5, 2, 4, 8, 12, 24, 36, 48, 72, 96- and 120-hours post-dose administration.

[5] = Stability of GLP-2 analogues on incubation at 37° C. (appearance, O.D. reading, RP-HPLC); format: physicochemical; conditions: following 48 h incubation at 37° C.
Protocol: The GLP-2 analogues were tested for stability via appearance, O.D. reading (A.280, and A.325) and RP-HPLC (purity, and peak area) following t=0, 1 day, and 48 h incubation at 37° C.

[6] = Pharmacokinetics of modified GLP-2 variants in rats; format: in vivo; conditions: rat, serum, peptide dose 15 mg/kg
[7] = test system: intestine epithelium (crypts plus villi); assay: Crypts plus villi length, histopathology of small intestine; format: in vivo, SD rats
Protocol: In addition to PEG30-FMS-V4 and PEG30-Fmoc-V4 that have been pharmacology evaluated by small intestinal weight evaluation (As shown in Example 5), four other reversible PEGylated variant 4 (“V4”) conjugates and two reversible linker-V4 conjugates were synthesized. All the above were injected to 6 normal SD rats/group once at 2 mg/kg (peptide dose), while on the 6th day, animals were scarified, and the small intestine was weighted followed by histopathology evaluation. […] Therefore, slices from three areas of the intestine (duodenum, jejunum and ilium) were stained with hematoxylin and eosin and at least 7 Crypts+Villi length/slice were measured. The averaged Villi+Crypt length of each treatment group (n=6) was compared to the vehicle group (negative control) and calculated as percentage increase over vehicle. […]
An additional study to evaluate the efficacy and the longevity of V4 and Cys-FMS-V4 was conducted (Study reference 15204) in which the animals were sacrificed on Days 6 (N=6), 10 (N=4) and 14 (N=4). This experiment measured the pharmacological response compared to the commercially approved SBS treatment drug Gattex. In addition, two new conjugates were tested by conjugating V4 to reduced OSu-linker and Cys-FMS-V4 purified from resin. The animals were injected with a single SC injection at Day 1 with 2 mg/kg peptide content of V4, Cys-FMS-V4, FMS-OSu-V4, Apraglutide and Glepaglutide while Gattex was SC injected daily at 2.5 mg/kg peptide content. […]

CMC perspective, combining purity and solubility [1]: outperformed the rest of the peptides | AUC(0-inf) [2]: 14.6 µM·h | AUC(0-t) [2]: 13.7 µM·h | CL/F [2]: 0.617 mL/min/kg | Cmax [2]: 0.49 µM | Time post injection up to which detectable in blood [2]: ≤ 240 h | Tmax [2]: 12 h | Vd/F [2]: 4.07 L/kg | half-life [2]: 77 h | Fold increase of Vbeta as compared to the initial volume of distribution [3]: ~51 fold | Fold increase of Vss as compared to the initial volume of distribution [3]: ~8 fold | Ratio (V4/Apraglutide) of CL [3]: 0.96 | Ratio (V4/Apraglutide) of Fpept [3]: 0.54 | Ratio (V4/Apraglutide) of Vbeta [3]: 1.52 | Ratio (V4/Apraglutide) of Vpept [3]: 0.40 | Ratio (V4/Apraglutide) of Vss [3]: 1.68 | Ratio (V4/Apraglutide) of k12 [3]: 11.60 | Ratio (V4/Apraglutide) of k21 [3]: 1.54 | Ratio (V4/Apraglutide) of ka—pept [3]: 0.44 | Ratio (V4/Apraglutide) of kpepte [3]: 2.40 | Ratio (V4/Apraglutide) of t1/2 absorption [3]: 2.28 | Ratio (V4/Apraglutide) of t1/2 alpha [3]: 0.17 | Ratio (V4/Apraglutide) of t1/2 beta [3]: 1.57 | k12 [3]: 0.0749 h⁻¹ | k21 [3]: 0.0105 h⁻¹ | ka—pept [3]: 0.0729 h⁻¹ | kpepte [3]: 0.205 h⁻¹ | t1/2 beta [3]: 173.2 h | bioavailability ([3]; Bioavailability lower in comparison to Apraglutide): 46% | Bioavailability following SC injection (reaching the systemic circulation) ([3]; sc): 40.1% | CL ([3]; sc): 0.215 mL/min/kg | Fpept ([3]; sc): 0.401 | Local degradation of the dose at the injection site ([3]; sc): ~60% | Vd ([3]; sc): 3.21 L/kg | Vpept ([3]; sc): 0.0627 L/kg | Vss ([3]; sc): 0.51 L/kg | t1/2 absorption ([3]; sc): 9.51 h | bioavailability ([3]; sc, Bioavailability following SC injection (reaching the systemic circulation)): ~40% | half-life ([3]; sc, t1/2 absorption): 9.51 h | half-life ([3]; t1/2 alpha): 1.29 h | half-life ([3]; t1/2 beta): 173 h | AUC(0-inf) [4]: 36.2 µM·h | AUC(0-t) [4]: 33.7 µM·h | Cl/F_obs [4]: 0.015 (μmol/kg)/(μmol/L)/h | Cmax [4]: 7.1 µM | Tmax [4]: 0.5 h | Vz/F_obs [4]: 0.068 (μmol/kg)/(μmol/L) | half-life [4]: 3.2 h | Solubility via appearance [5]: V4: clear | half-life [6]: 17.5 h
Structure (SMILES): CCCC[C@H](NC(=O)[C@H](CCC(=O)O)NC(=O)[C@H](CC(=O)O)NC(=O)[C@H](CO)NC(=O)[C@H](Cc1ccccc1)NC(=O)[C@H](CO)NC(=O)CNC(=O)[C@H](CCC(=O)O)NC(=O)CNC(=O)[C@@H](N)Cc1c[nH]cn1)C(=O)N[C@@H](CC(N)=O)C(=O)N[C@H](C(=O)N[C@H](C(=O)N[C@@H](CC(C)C)C(=O)N[C@@H](CC(=O)O)C(=O)N[C@@H](CC(C)C)C(=O)N[C@@H](CC(C)C)C(=O)N[C@@H](C)C(=O)N[C@@H](C)C(=O)N[C@@H](CCCNC(=N)N)C(=O)N[C@@H](CC(=O)O)C(=O)N[C@@H](Cc1ccccc1)C(=O)N[C@H](C(=O)N[C@@H](CC(N)=O)C(=O)N[C@@H](Cc1c[nH]c2ccccc12)C(=O)N[C@@H](CC(C)C)C(=O)N[C@H](C(=O)N[C@@H](CCC(N)=O)C(=O)N[C@H](C(=O)N[C@@H](CCCCN)C(=O)N[C@H](C(=O)N[C@H](C(=O)N[C@@H](CC(=O)O)C(N)=O)[C@@H](C)O)[C@@H](C)CC)[C@@H](C)O)[C@@H](C)CC)[C@@H](C)CC)[C@@H](C)CC)[C@@H](C)O [Variant 4] (H-HGEGSFSDE[Nle]NTILDLLAARDFINWLIQTKITD-NH2)
Detectability in blood after IV administration [4]: could not be detected 24 hours post injection | Percent increase of Crypts+Villi length over vehicle (FIG. 3) ([7]; Study 15201, 0.5 and 2 mg/kg peptide dose once, 6 days after injection): dose dependent pharmacology effect on the intestine epithelium | Crypts plus villi length percent increase over vehicle (FIG. 13) ([7]; Study 15203, single SC 2 mg/kg on Day 1, Days 6 and 10, listed as V4, 2 mg/kg): the most pronounced effect on crypts plus villi length over vehicle compared to Apraglutide and Glepaglutide; also recorded: prolonged activity 10 days following a single SC injection | Crypts plus villi length percent increase over vehicle (FIG. 14) ([7]; Study 15204, single SC 2 mg/kg on Day 1, Days 6, 10 and 14): the most prominent and prolonged effect on villi and crypts length up to 14 days from injection | Villi plus crypts length percent increase over vehicle (FIG. 16) ([7]; Study 15205, single SC 0.5, 2.0 or 8.0 mg/kg, Days 3, 7 and 14): comparable intestinotrophic response on villi and crypt length at all three dose levels

Reference: US20200254065A1, “LONG-ACTING GLP-2 ANALOGS” (OPKO Biologics Ltd., priority 2019, published 2020)
